The results in this text go back to article PMC4224572, “Peptidomimetic inhibitors of N-myristoyltransferase from human malaria and leishmaniasis parasites” (Organic & Biomolecular Chemistry, 2014).

One assay addresses T1, PvNMT (Plasmodium vivax, UniProt A5K1A2).
T1 sequence (A5K1A2 1-410): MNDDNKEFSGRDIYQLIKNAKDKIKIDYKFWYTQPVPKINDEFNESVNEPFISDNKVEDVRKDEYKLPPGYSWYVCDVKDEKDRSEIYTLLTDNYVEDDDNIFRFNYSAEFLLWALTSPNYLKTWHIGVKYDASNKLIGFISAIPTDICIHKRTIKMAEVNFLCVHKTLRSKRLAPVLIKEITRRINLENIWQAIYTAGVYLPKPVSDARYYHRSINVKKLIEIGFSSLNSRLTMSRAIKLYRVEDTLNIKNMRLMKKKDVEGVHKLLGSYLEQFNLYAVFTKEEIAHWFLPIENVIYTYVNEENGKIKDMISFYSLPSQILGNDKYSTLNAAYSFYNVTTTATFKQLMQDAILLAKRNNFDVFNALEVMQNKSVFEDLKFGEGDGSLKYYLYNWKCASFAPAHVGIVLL
The assay is described as follows: Fluorogenic NMT inhibition assay, PvNMT. The class given is biochemical. As to conditions: recombinant enzyme; mean of duplicate or triplicate experiments. The source says:
(§1) 2-Methylimidazolyl analogues were synthesized building on the hypothesis that 2-methylimidazole (pK a ∼ 7.9)[18] is a reasonable mimetic for N-terminal Gly in the peptide substrate (pK a ∼ 8.0).[19] To cover a range of basicity, imidazolyl (pK a ∼ 7.0) and amine analogues (pK a ∼ 10.0) were also synthesized, each exploring a range of chain lengths (n) (Table 1). To probe versatility at the C-terminus, primary amides, carboxylic acids, 2-cyclohexylethyl and 2-(1-cyclohexenyl)ethyl amides were incorporated. Using a previously reported fluorogenic assay,[20] inhibitors were tested against the parasitic enzymes and HsNMT1 in order to explore their selectivity against a relevant host enzyme. […] Further reduction of the chain length (11 and 12, n = 8 and 7, respectively) led to loss of detectable activity against Plasmodium NMTs and significant loss of activity against LdNMT and HsNMT1.

The target of another assay is T2, PfNMT (Plasmodium falciparum, UniProt Q9U419).
T2 sequence (Q9U419 1-410): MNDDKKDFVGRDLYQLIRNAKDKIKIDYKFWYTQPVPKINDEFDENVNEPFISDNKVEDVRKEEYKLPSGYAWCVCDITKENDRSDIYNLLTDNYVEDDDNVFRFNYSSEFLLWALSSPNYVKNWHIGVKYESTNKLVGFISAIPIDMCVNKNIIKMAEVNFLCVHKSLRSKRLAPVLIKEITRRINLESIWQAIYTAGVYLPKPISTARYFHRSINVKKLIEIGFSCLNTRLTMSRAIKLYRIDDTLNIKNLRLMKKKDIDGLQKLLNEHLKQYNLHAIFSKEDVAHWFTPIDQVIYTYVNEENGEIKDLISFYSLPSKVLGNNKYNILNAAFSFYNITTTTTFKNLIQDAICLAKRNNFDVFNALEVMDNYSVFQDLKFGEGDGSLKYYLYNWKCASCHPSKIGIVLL
Kind of assay: Fluorogenic NMT inhibition assay, PfNMT. The assay is classed as biochemical. As to conditions: recombinant enzyme; mean of duplicate or triplicate experiments.
Excerpt: as §1

A further assay has as its system LdNMT. Kind of assay: Fluorogenic NMT inhibition assay, LdNMT. The assay is classed as biochemical, L. donovani. As to conditions: for IC50: recombinant enzyme, mean of duplicate or triplicate experiments.
Excerpt: as §1

The next assay addresses T3, HsNMT1 (Homo sapiens, UniProt P30419).
T3 sequence (P30419 1-496): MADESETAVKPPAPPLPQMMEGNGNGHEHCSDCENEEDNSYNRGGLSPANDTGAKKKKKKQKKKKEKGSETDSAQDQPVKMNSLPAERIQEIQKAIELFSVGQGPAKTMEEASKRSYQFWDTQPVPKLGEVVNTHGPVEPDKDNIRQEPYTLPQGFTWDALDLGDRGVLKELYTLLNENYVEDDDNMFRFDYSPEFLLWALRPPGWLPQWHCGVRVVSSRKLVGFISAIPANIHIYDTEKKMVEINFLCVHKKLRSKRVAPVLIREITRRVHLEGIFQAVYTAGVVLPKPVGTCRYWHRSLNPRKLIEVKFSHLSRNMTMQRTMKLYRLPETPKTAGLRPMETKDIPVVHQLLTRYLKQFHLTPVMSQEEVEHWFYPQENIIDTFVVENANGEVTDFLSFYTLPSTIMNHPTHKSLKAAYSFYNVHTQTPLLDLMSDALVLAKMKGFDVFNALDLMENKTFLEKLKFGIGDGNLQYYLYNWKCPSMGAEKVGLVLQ
Kind of assay: Fluorogenic NMT inhibition assay, HsNMT1. The assay is classed as biochemical, H. sapiens. The following applies: for IC50: mean of duplicate or triplicate experiments. The text has this: 2-Methylimidazolyl analogues were synthesized building on the hypothesis that 2-methylimidazole (pK a ∼ 7.9)[18] is a reasonable mimetic for N-terminal Gly in the peptide substrate (pK a ∼ 8.0).[19] To cover a range of basicity, imidazolyl (pK a ∼ 7.0) and amine analogues (pK a ∼ 10.0) were also synthesized, each exploring a range of chain lengths (n) (Table 1). To probe versatility at the C-terminus, primary amides, carboxylic acids, 2-cyclohexylethyl and 2-(1-cyclohexenyl)ethyl amides were incorporated. Using a previously reported fluorogenic assay,[20] inhibitors were tested against the parasitic enzymes and HsNMT1 in order to explore their selectivity against a relevant host enzyme.

Where [1] appears, read: hydroxyl substituted for the N-terminal amine.

Square brackets hold non-standard residues; d marks the D form. Peptide text beside a SMILES is read from it. Aun = NCCCCCCCCCCC(=O)O; Aoc = NCCCCCCCC(=O)O Where only a bound is given, the exact number is not on record here.

One may read the IC50 as the concentration needed to halve the response being measured. Turning to `NCCCC[C@H](NC(=O)[C@H](CO)NC(=O)CCCCCCCCCCn1ccnc1)C(=O)NCCC1CCCCC1` [Compound 1], the half-inhibitory concentration (IC50) at PvNMT was over 100 µM; at PfNMT, over 100 µM; in the assay with LdNMT, 25.8 ± 8.2 µM; at HsNMT1 it was 47.6 ± 3.8 µM.

In the case of `NCCCC[C@H](NC(=O)[C@H](CO)NC(=O)CCCCCCCCCn1ccnc1)C(=O)NCCC1CCCCC1` [Compound 2], the IC50 is over 100 µM on PvNMT, over 100 µM at PfNMT, 10.6 ± 1.6 µM with LdNMT and 44 ± 7.1 µM against HsNMT1.

On to `NCCCC[C@H](NC(=O)[C@H](CO)NC(=O)CCCCCCCCn1ccnc1)C(=O)NCCC1CCCCC1` [Compound 3], for which the IC50 on PvNMT was over 100 µM; at PfNMT, over 100 µM; with LdNMT, 16.7 ± 2.5 µM; against HsNMT1, over 100 µM.

`NCCCC[C@H](NC(=O)[C@H](CO)NC(=O)CCCCCCCn1ccnc1)C(=O)NCCC1CCCCC1` [Compound 4]: the IC50 was over 100 µM at PvNMT, over 100 µM at PfNMT, 34.8 ± 3.7 µM in the assay on LdNMT and over 100 µM against HsNMT1.

With `Cc1nccn1CCCCCCCCCCC(=O)N[C@@H](CO)C(=O)N[C@@H](CCCCN)C(=O)NCCC1CCCCC1` [Compound 5], the 50% inhibitory concentration (IC50) was over 100 µM at PvNMT, over 100 µM on PfNMT, over 100 µM with LdNMT and 21.8 ± 0.8 µM against HsNMT1.

On to `Cc1nccn1CCCCCCCCCC(=O)N[C@@H](CO)C(=O)N[C@@H](CCCCN)C(=O)NCCC1CCCCC1` [Compound 6], for which the concentration for half-maximal inhibition (IC50) was over 100 µM at PvNMT, over 100 µM at PfNMT, 0.63 ± 0.01 µM in the assay with LdNMT and 7.92 ± 0.83 µM against HsNMT1.

As to `Cc1nccn1CCCCCCCCC(=O)N[C@@H](CO)C(=O)N[C@@H](CCCCN)C(=O)NCCC1CCCCC1` [Compound 7], the IC50 on PvNMT is over 100 µM; at PfNMT it was over 100 µM; in the assay on LdNMT, 3.42 ± 0.34 µM; against HsNMT1, 49.9 ± 10.6 µM.

For the compound `Cc1nccn1CCCCCCCC(=O)N[C@@H](CO)C(=O)N[C@@H](CCCCN)C(=O)NCCC1CCCCC1` [Compound 8], the IC50 at PvNMT is over 100 µM; on PfNMT it was over 100 µM; in the assay on LdNMT, 1.46 ± 0.22 µM; at HsNMT1, 82.2 ± 14 µM.

As for `NCCCCCCCCCCC(=O)N[C@@H](CO)C(=O)N[C@@H](CCCCN)C(=O)NCCC1CCCCC1` [Compound 9], the IC50 is 1.04 ± 0.01 µM on PvNMT, over 100 µM at PfNMT and 0.14 ± 0.01 µM in the assay with LdNMT.

Take `NCCCCCCCCC(=O)N[C@@H](CO)C(=O)N[C@@H](CCCCN)C(=O)NCCC1CCCCC1` [Compound 11]: the IC50 at PvNMT is over 100 µM; on PfNMT, over 100 µM; with LdNMT, 2.01 ± 0.3 µM; at HsNMT1 it was 7.68 ± 0.86 µM.

As for `NCCCCCCCC(=O)N[C@@H](CO)C(=O)N[C@@H](CCCCN)C(=O)NCCC1CCCCC1` [Compound 12], the IC50 is over 100 µM on PvNMT, over 100 µM at PfNMT, 1.39 ± 0.18 µM in the assay with LdNMT and 6.75 ± 0.45 µM against HsNMT1.

As to `CC(=O)N[C@@H](CO)C(=O)N[C@@H](CCCCN)C(=O)NCCC1CCCCC1` [Compound 14], the IC50 at PvNMT, on PfNMT, in the assay with LdNMT and at HsNMT1 was over 100 µM throughout.

As to `NCCCCCCCCCCC(=O)N[C@@H](CO)C(=O)N[C@@H](CCCCN)C(=O)NCCC1=CCCCC1` [Compound 15], the IC50 on PvNMT was 12.9 ± 1.07 µM; on PfNMT, over 100 µM; in the assay on LdNMT it was 6.6 ± 1.28 µM; on HsNMT1 it was 2.3 ± 0.14 µM.

As for `NCCCCCCCCCC(=O)N[C@@H](CO)C(=O)N[C@@H](CCCCN)C(=O)NCCC1=CCCCC1` [Compound 16], the half-maximal inhibitory concentration (IC50) on PvNMT was 3.55 ± 0.38 µM; on PfNMT, over 100 µM; with LdNMT, 0.44 ± 0.04 µM; against HsNMT1 it was 0.67 ± 0.04 µM.

As for `NCCCC[C@H](NC(=O)[C@H](CO)NC(=O)CCCCCCCCCCn1ccnc1)C(=O)NCCC1=CCCCC1` [Compound 17], the IC50 at PvNMT, on PfNMT, in the assay with LdNMT and against HsNMT1 was over 100 µM in each case.

In the case of `NCCCC[C@H](NC(=O)[C@H](CO)NC(=O)CCCCCCCCCn1ccnc1)C(=O)NCCC1=CCCCC1` [Compound 18], the 50% inhibitory concentration (IC50) on PvNMT, on PfNMT, in the assay with LdNMT and on HsNMT1 was over 100 µM in each case.

For the compound `Cc1nccn1CCCCCCCCCCC(=O)N[C@@H](CO)C(=O)N[C@@H](CCCCN)C(=O)NCCC1=CCCCC1` [Compound 19], the IC50 on PvNMT, on PfNMT, in the assay on LdNMT and at HsNMT1 was over 100 µM in each case.

Take `Cc1nccn1CCCCCCCCCC(=O)N[C@@H](CO)C(=O)N[C@@H](CCCCN)C(=O)NCCC1=CCCCC1` [Compound 20]: the IC50 at PvNMT, on PfNMT and against HsNMT1 was over 100 µM each time.

As to `NCCCCCCCCCCC(=O)N[C@@H](CO)C(=O)N[C@@H](CCCCN)C(N)=O` [Compound 21] (H-[Aun]-Ser-Lys-NH2), the IC50 was over 100 µM on PvNMT, over 100 µM on PfNMT, 13.3 ± 2 µM in the assay on LdNMT and 5.4 ± 0.41 µM on HsNMT1.

On to `NCCCCCCCCCC(=O)N[C@@H](CO)C(=O)N[C@@H](CCCCN)C(N)=O` [Compound 22], for which the IC50 is 22.9 ± 3.5 µM on PvNMT, over 100 µM at PfNMT, 1.36 ± 0.2 µM in the assay on LdNMT and 1.36 ± 0.29 µM against HsNMT1.

Regarding `NCCCCCCCCC(=O)N[C@@H](CO)C(=O)N[C@@H](CCCCN)C(N)=O` [Compound 23], the IC50 was over 100 µM at PvNMT, over 100 µM at PfNMT, 27.1 ± 2.6 µM in the assay with LdNMT and 33.1 ± 2.5 µM against HsNMT1.

With `NCCCCCCCC(=O)N[C@@H](CO)C(=O)N[C@@H](CCCCN)C(N)=O` [Compound 24] (H-[Aoc]-Ser-Lys-NH2), the half-inhibitory concentration (IC50) at PvNMT was over 100 µM; on PfNMT it was over 100 µM; in the assay with LdNMT, 61.9 ± 4.7 µM; against HsNMT1, over 100 µM.

Consider `NCCCCCCCCCCC(=O)N[C@@H](CO)C(=O)N[C@@H](CCCCN)C(=O)O` [Compound 25] (H-[Aun]-Ser-Lys-OH), for which the IC50 on PvNMT is over 100 µM; on PfNMT, over 100 µM; with LdNMT, 86.7 ± 10.4 µM; against HsNMT1 it was 39.2 ± 2 µM.

With `NCCCCCCCCCC(=O)N[C@@H](CO)C(=O)N[C@@H](CCCCN)C(=O)O` [Compound 26], the IC50 at PvNMT is over 100 µM; at PfNMT it was over 100 µM; in the assay on LdNMT it was over 100 µM; against HsNMT1 it was 92.1 ± 17.6 µM.

`NCCCC[C@H](NC(=O)[C@H](CO)NC(=O)CCCCCCCCCO)C(=O)NCCC1CCCCC1` [Compound 46]: the “loss in activity, Leishmania NMT” value with LdNMT (setting [1]) is on record as over 100 folds. For the same compound, the “loss in activity, Human NMT” value at HsNMT1 (setting [1]) amounted to 1000 folds.
